Experiments:
[1] = system: Homo sapiens; experiment: Inhibition of fractional cholesterol absorption in normolipidemic human at 300 mg administered twice daily for 2 weeks; format: functional; design: scale not given: the % may be the effect or the level left
[2] = system: Homo sapiens; experiment: Reduction in serum LDL-cholesterol level in normolipidemic human at 300 mg administered twice daily for 2 weeks; format: functional; design: scale not given: the % may be the effect or the level left

## C[C@@H]1CC[C@@]2(OC1)O[C@H]1C[C@H]3[C@@H]4CC[C@H]5C[C@@H](O[C@@H]6O[C@H](CO)[C@@H](O[C@@H]7O[C@H](CO)[C@@H](O)[C@H](O)[C@H]7O)[C@H](O)[C@H]6O)CC[C@]5(C)[C@H]4C(=O)C[C@]3(C)[C@H]1[C@@H]2C [PAMAQUESIDE]
[1]
  Activity: 35%
[2]
  Activity: 10%

— ChEMBL document CHEMBL1150938, “Recent natural products based drug development: a pharmaceutical industry perspective” (J Nat Prod, 1998)
